For 3 compounds, Kd results are on record in PMC6982127, “GTP Binding Is Necessary for the Activation of a Toxic Mutant Isoform of the Essential GTPase ObgE” (International Journal of Molecular Sciences, 2019).

Each structure is given as a SMILES string. Where two headings read alike, the source gives them in different places.

Common to all, as to test: isothermal titration calorimetry
Assay type in all cases: binding
On the technique in general: Isothermal titration calorimetry measures the heat released or taken up as one component is titrated into another.

In assay [1] the target is T1, ObgE (Escherichia coli, UniProt P42641, DEL153-156).
T1 construct: full-length ObgE, N-terminal His6 tag (pET28a-obgE), expressed in E. coli BL21(DE3) pLysS, Ni-NTA and size exclusion, made nucleotide-free by alkaline phosphatase
The source says: (§1) isothermal titration calorimetry on ObgE

The target of assay [2] is T2, ObgE (Escherichia coli, UniProt P42641, E265K).
T2 construct: full-length ObgE, N-terminal His6 tag (pET28a-obgE), expressed in E. coli BL21(DE3) pLysS, Ni-NTA and size exclusion, made nucleotide-free by alkaline phosphatase
Text: as §1

Assay [3] deals with T3, ObgE (Escherichia coli, UniProt P42641, H234R).
T3 construct: full-length ObgE, N-terminal His6 tag (pET28a-obgE), expressed in E. coli BL21(DE3) pLysS, Ni-NTA and size exclusion, made nucleotide-free by alkaline phosphatase
Text: as §1

The target of assay [4] is T4, ObgE (Escherichia coli, UniProt P42641, T174I).
T4 construct: full-length ObgE, N-terminal His6 tag (pET28a-obgE), expressed in E. coli BL21(DE3) pLysS, Ni-NTA and size exclusion, made nucleotide-free by alkaline phosphatase
Text: as §1

[5] abbreviates: read-out: Equilibrium Dissociation Constants / KD(GDP).
Setting [6] is: read-out: Equilibrium Dissociation Constants / KD(GTPγS).
The mark [7] stands for this setting: read-out: Equilibrium Dissociation Constants / KD(ppGpp).

T3 sequence (P42641 whole entry H234R): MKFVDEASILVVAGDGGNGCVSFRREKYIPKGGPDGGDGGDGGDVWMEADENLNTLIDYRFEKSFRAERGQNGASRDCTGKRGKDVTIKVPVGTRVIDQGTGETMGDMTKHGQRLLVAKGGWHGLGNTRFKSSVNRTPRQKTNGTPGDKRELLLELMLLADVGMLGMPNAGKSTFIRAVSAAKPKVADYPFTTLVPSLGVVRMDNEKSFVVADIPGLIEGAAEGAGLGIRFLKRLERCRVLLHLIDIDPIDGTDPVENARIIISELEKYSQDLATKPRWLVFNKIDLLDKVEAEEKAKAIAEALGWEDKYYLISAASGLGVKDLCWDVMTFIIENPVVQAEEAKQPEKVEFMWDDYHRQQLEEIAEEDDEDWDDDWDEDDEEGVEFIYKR
T1 sequence (P42641 with tags, fused parts or gaps DEL153-156): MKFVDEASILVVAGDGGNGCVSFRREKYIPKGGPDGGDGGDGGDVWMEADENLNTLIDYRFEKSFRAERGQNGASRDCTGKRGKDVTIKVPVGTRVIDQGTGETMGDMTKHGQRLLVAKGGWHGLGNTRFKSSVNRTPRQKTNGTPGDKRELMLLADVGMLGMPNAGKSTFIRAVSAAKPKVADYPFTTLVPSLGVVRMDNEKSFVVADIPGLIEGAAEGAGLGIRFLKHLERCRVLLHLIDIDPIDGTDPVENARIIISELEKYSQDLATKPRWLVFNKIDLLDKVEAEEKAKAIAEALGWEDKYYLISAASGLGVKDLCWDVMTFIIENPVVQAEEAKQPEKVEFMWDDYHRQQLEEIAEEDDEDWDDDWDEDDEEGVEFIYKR
T4 sequence (P42641 whole entry T174I): as the sequence (P42641 whole entry H234R) above, with T174I, R234H counted along it
T2 sequence (P42641 whole entry E265K): as the sequence (P42641 whole entry H234R) above, with R234H, E265K counted along it

On to `Nc1nc2c(ncn2[C@@H]2O[C@H](COP(=O)(O)OP(=O)(O)O)[C@@H](O)[C@H]2O)c(=O)[nH]1` [GDP], for which the Kd in assay [1] (setting [5]) was 600 ± 50 nM; in assay [2] (setting [5]), 250 ± 30 nM; in assay [3] (setting [5]) it was 430 ± 50 nM; in assay [4] (setting [5]) it was 115000 ± 2000 nM.

On to `Nc1nc2c(ncn2[C@@H]2O[C@H](COP(=O)(O)OP(=O)(O)OP(O)(O)=S)[C@@H](O)[C@H]2O)c(=O)[nH]1` [GTPγS], for which the Kd in assay [1] (setting [6]) turned out to be 3400 ± 500 nM; in assay [2] (setting [6]) it was 5700 ± 800 nM; in assay [3] (setting [6]), 3700 ± 500 nM; in assay [4] (setting [6]), 160000 ± 11000 nM.

Take `Nc1nc2c(ncn2[C@@H]2O[C@H](COP(=O)(O)OP(=O)(O)O)[C@@H](OP(=O)(O)OP(=O)(O)O)[C@H]2O)c(=O)[nH]1` [ppGpp]: the Kd came to 640 ± 60 nM in assay [1] (setting [7]), 310 ± 30 nM in assay [2] (setting [7]), 600 ± 60 nM in assay [3] (setting [7]) and 81000 ± 3000 nM in assay [4] (setting [7]).
